Patent publication US20250197337A1, “CONVERSION OF TRIACETIC ACID LACTONE TO POTASSIUM SORBATE” (priority 2023, published 2025)

Assays:
Penicillium chrysogenum = test: microbe, parasite or virus in culture
Procedure: (§1) To assess the effectiveness of KS against bacteria and fungi, several tests were conducted in accordance with the Antimicrobial Susceptibility Testing Standards outlined by the Clinical and Laboratory Standards Institute (Malvern, Pennsylvania, USA) (CLSI Mo2-A12, 2015) with some modifications, including the minimal inhibitory concentration (MIC), and an agar diffusion disc test. Potassium sorbate solutions with concentrations ranging from 0.5 to 8.0 mg/ml were combined with bacterial cells (10^5 CFU/mL) and fungal spores (105 conidia/mL) in TSB medium with a pH adjusted to 5.5 for bacteria and in Potato Dextrose Broth (“PDB”) medium (with an original pH of 5.5) for fungi. They were then incubated at 37° C. (for E. coli) for 24 hours and 25° C. (for P. chrysogenum) for 6 days. To determine the minimum inhibitory concentration (“MIC”) of antimicrobial substances, optical density (“OD”) at 600 nm was measured through a Bioscreen C device (Oy Growth Curves Ab Ltd., Turku, Finland) using turbidimetric measurements. The MIC refers to the lowest concentration of antimicrobial that prevents visible growth of microorganisms after incubation. For fungal growth, the MIC was determined based on the inhibition of mycelial growth. The negative control was added the same volume of deionized water without potassium sorbate to observe the growth of bacteria and fungi. Furthermore, to determine assess the survivability of cells and spores when exposed to potassium sorbate for 18 hours, microbial counts were expressed as the logarithm of colony forming units per ml (log CFU/mL). Each measurement was performed in triplicate.

bacteria and fungi = conditions: against bacteria and fungi
Procedure: as §1

P. chrysogenum = conditions: for spores of P. chrysogenum: concentrations greater than 4 mg/ml, after 6 days of incubation
Procedure: as §1

Escherichia coli 1-894-1 = test: microbe, parasite or virus in culture
Procedure: Isolated colonies of Escherichia coli 1-894-1 (ATCC, Manassas, Virginia, USA) were picked from the bacterial culture plate and inoculated into 4-5 mL of TSB liquid medium for all bacterial strains. TSB liquid medium was prepared by dissolving a mixture of 17.0 g pancreatic digest of casein, 3.0 g papaic digest of soybean, 2.5 g dextrose, 5.0 g sodium chloride, and 2.5 g dipotassium phosphate in a final volume of 1,000 mL of distilled water, stirring for at least for 20 minutes, and then sterilizing under high pressure ([…] for 20 minutes at 121° C.). To achieve log phase growth, bacterial cultures were incubated at 37° C. for 2-6 hours based on the 0.5 McFarland standard, which corresponds to approximately 1.5×10^8 CFU/mL when the optical density of a bacterial suspension ranged from 0.08 to 0.1. A 1:20 dilution was made by adding 2.0 ml of the original suspension to 38 mL of PBS buffer, and then a 1:10 dilution was prepared by adding 0.01 ml to each well to obtain a final concentration of about 5.0×10^5 CFU/mL.
as §1

E. coli = conditions: concentration of >3 mg/ml; 24 hours at 37° C.
Penicillium italicum = conditions: cited from earlier work
[1] = tested on: E. coli O157:H7 (ATCC 35150); conditions: separate study; cited from earlier work
[2] = room temperature; cited from earlier work
[3] = previous study; cited from earlier work

In the case of C/C=C/C=C\C(=O)[O-].[K+] [TAL-derived KS, cis-2, trans-4 potassium sorbate], the “antifungal activities compared with commercial KS” value (Penicillium chrysogenum) is reported as “same antifungal activities as commercial KS”, the “MIC against P. chrysogenum (preventing mycelial growth)” value (Penicillium chrysogenum; PDB medium pH 5.5, 25° C., 6 days) is reported as 6000 µg/mL and the “antimicrobial activity compared with commercial KS” value (bacteria and fungi) is reported as “comparable antimicrobial activities”. For the same compound, the “inhibition of P. chrysogenum growth as compared to C-KS” value (P. chrysogenum; concentration of 6 mg/mL, 6 days of incubation) was “significant inhibition”, the “spores of P. chrysogenum” value (P. chrysogenum) was “significantly decreased” and the “inhibitory effect on the growth of E. coli” value (Escherichia coli 1-894-1; concentration of 2 mg/ml) was “mild inhibitory effect”. For the same compound, the “inhibitory effect on the growth of E. coli” value (Escherichia coli 1-894-1; concentration of 4 mg/ml) was “significant inhibitory effect” and the “inhibitory effects against E. coli (CFU count)” value (E. coli) was “significant inhibitory effects”.
For C/C=C/C=C/C(=O)[O-].[K+] [KS, potassium sorbate], the “MIC against Penicillium italicum” value (Penicillium italicum) is listed as 15000 µg/mL, the “MIC against E. coli O157:H7 (ATCC 35150)” value [1] is listed as 1600 µg/mL and the solubility in water [2] is listed as 58.5 g per 100 ml.
In the case of C/C=C/C=C/C(=O)[O-].[K+] [trans, trans-potassium sorbate], the “antimicrobial activity compared with the mixture of isomers” value [3] is given as “higher antimicrobial activity than the mixture of isomers”.
With C/C=C/C=C/C(=O)[O-].[K+] [commercial KS, trans, trans-2,4-hexadienoic acid potassium salt] the MIC (Penicillium chrysogenum; Penicillium chrysogenum, 144 h, pH 5.5, read-out: MIC against P. chrysogenum (preventing mycelial growth)) was 8000 µg/mL, the “spores of P. chrysogenum” value (P. chrysogenum) was “significantly decreased” and the MIC (Escherichia coli 1-894-1; Escherichia coli, 18941, 24 h, pH 5.5, read-out: MIC against E. coli) was 2000 to 4000 µg/mL. For the same compound, the “inhibitory effect on the growth of E. coli” value (Escherichia coli 1-894-1; concentration of 2 mg/ml) was “mild inhibitory effect”, the “inhibitory effect on the growth of E. coli” value (Escherichia coli 1-894-1; concentration of 4 mg/ml) was “significant inhibitory effect” and the “inhibitory effects against E. coli (CFU count)” value (E. coli) was “significant inhibitory effects”.
